The values that follow come from patent publication EP3344255B1 (priority 2016, dated 2017).

What all share (assay type): cell-based, Acinetobacter baumannii
Assay [1] has as its system colistin-susceptible A.baumannii strains. Kind of assay: Growth on Mueller Hinton Agar with and without methylene blue. As to conditions: 14 mcg/ml methylene blue in Mueller Hinton Agar. The source says:
(§1) Firstly, colistin-susceptible A.baumannii strains obtained from the same passage were subcultured on media (Mueller Hinton Agar) containing 14 mcg/ml methylene blue and without methylene blue and colistin gradient test (E-test) strips were placed on them.

The subject of assay [2] is A.baumannii bacteria with resistance to colistin. On the procedure:
as §1
Later, the same tests were performed on A.baumannii bacteria with resistance to colistin. […] These bacterial varieties with resistance to colistin were tested based on species with different levels of MIC (minimum inhibitory concentrations) for colistin.

The subject of assay [3] is colistin-susceptible A.baumannii strains. Description: Colistin gradient test (E-test) on Mueller Hinton Agar with and without methylene blue.
Description: as §1

Assay [4] concerns A.baumannii bacteria with resistance to colistin. Described as above. On the procedure: as §1
Later, the same tests were performed on A.baumannii bacteria with resistance to colistin. While there was growth in the medium without methylene blue (Mueller Hinton Agar), there was no growth in the medium containing methylene blue. […] These bacterial varieties with resistance to colistin were tested based on species with different levels of MIC (minimum inhibitory concentrations) for colistin. […] In other words, it's understood these bacteria were inhibited. […] The probable cause of this reduction is that those with MIC values more than 0.5 mcg/ml in the bacterial population were selectively killed by methylene blue. […] However, the inhibition rate for strains with high MIC value (like 32 mcg/ml) was higher than the inhibition rate for strains with low MIC value (like 4-8 mcg/ml). In other words, the susceptiblity to methylene blue is proportional to the colistin resistance levels of colistin-resistant A.baumannii bacteria.
These effects of inhibition of colistin-resistant A.baumannii bacteria by methylene blue are clearly understood from the appearance on MHA (Mueller Hinton Agar) media. Image 1 and 2 provide the appearance of A.baumannii strains with homogeneous resistance to colistin on MHA (Mueller Hinton Agar) media. […] Images 3 and 4 provide images of heteroresistant A.baumannii strains with resistance to colistin on MHA.

Like-named read-outs stand apart in the source and are kept apart here.

`CN(C)c1ccc2nc3ccc(=[N+](C)C)cc-3sc2c1` [methylene blue]: the growth inhibition entry in assay [1] is on record as “did not inhibit growth”; in assay [2] (14 mcg/ml methylene blue on MHA, heteroresistant strain, internal zone with colistin MIC 32 mcg/ml) it was “totally inhibited”; in assay [2] (14 mcg/ml methylene blue on MHA, homogeneously resistant strain with colistin MIC 32 mcg/ml (Image 2)), “completely inhibited”; in assay [2] (methylene blue medium, bacteria with high levels of colistin resistance (MIC value 32 mcg/ml)), “completely stopped growth”; in assay [2] (methylene blue medium, bacteria with low levels of colistin resistance (MIC value 1 or 3 mcg/ml)), “did not completely stop growing”. In addition, in assay [2] (medium containing methylene blue (14 mcg/ml), colistin resistant bacteria, growth in medium without methylene blue), the growth entry is given as “no growth”. In addition, the “inhibitory effect on bacterial subpopulations” value in assay [2] (methylene blue solution, all subpopulations with colistin MIC value above 0.5 mcg/ml) is listed as “inhibitory effects”. The “increase of susceptibility to colistin” value in assay [3] (effect of methylene blue, strains with colistin MIC values of 0.5 mcg/ml or less) was “no increased susceptibility”. In addition, the “susceptibility of A.baumannii strain to colistin” value in assay [3] (medium containing 14 mcg/ml methylene blue, colistin susceptible strains) is given as “slightly increased”.

In general, MIC refers to the smallest concentration in the dilution series that meets the test's criterion for growth inhibition. High values mean weaker potency, low ones greater potency. Take Colistin (polymyxin E): in assay [3] (medium containing methylene blue vs without, colistin susceptible strains), the “regression of colistin MIC” value was about 0.5 µg/mL. Also, the minimal inhibitory concentration (MIC) in assay [4] (14 mcg/ml methylene blue on MHA, heteroresistant strain, outer zone (MIC 2 mcg/ml before)) was found to be 0.5 µg/mL; in assay [4] (MHA without methylene blue, heteroresistant strain, internal zone (Image 3)), 32 µg/mL; in assay [4] (MHA without methylene blue, heteroresistant strain, outer zone (Image 3)), 2 µg/mL; in assay [4] (MHA without methylene blue, strain with homogeneous resistance to colistin (Image 1)), 32 µg/mL. The “MIC (minimum inhibitory concentration)” value in assay [4] (with methylene blue, bacteria with low levels of colistin resistance (MIC 1 or 3 mcg/ml before)) amounted to 0.5 µg/mL; in assay [4] (without methylene blue, bacteria with high levels of colistin resistance) it was 32 µg/mL.
